Assay results reported in patent US20070031415A1, “Regulation of interaction between rapl and rap1” (priority 2002, published 2007).

Biological target: T1, binding between Rap1 and p30 (Homo sapiens, UniProt P62834+Q8WWW0)
T1 construct: made in house; 293T cells for Myc-p30 (crude lysate)
T1 sequence (P62834 1-184): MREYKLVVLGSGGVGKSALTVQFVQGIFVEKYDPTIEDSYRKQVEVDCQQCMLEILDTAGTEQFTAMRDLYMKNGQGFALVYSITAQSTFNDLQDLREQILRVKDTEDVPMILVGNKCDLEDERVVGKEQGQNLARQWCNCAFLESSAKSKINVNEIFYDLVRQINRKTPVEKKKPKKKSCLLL
T1 sequence (Q8WWW0 1-265 isoform Q8WWW0-2): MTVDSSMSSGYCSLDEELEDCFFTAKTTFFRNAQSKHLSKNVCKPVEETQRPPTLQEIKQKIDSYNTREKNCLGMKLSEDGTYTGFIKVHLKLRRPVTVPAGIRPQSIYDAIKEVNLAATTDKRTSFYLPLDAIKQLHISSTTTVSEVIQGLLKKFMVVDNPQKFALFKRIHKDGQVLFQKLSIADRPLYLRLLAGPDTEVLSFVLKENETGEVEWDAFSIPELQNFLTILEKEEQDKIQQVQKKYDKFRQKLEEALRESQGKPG
Assay: Rap1-p30 binding inhibition assay (GST-Rap1 beads pull-down of Myc-p30 lysate, western blot)
Settings: 1 μM compound, GTPγS-activated Rap1, reaction 4° C. 30 sec; FIG. 7
Method: For a plasmid for production of GST-Rap1 fusion protein, pGEX-3× (product of Amersham Pharmacia Biotech) was used. The Rap1 coding sequence represented by SEQ ID NO:1 was inserted between BamHI and EcoRI restriction enzyme sites of the vector. At this time, two nucleotide pair CC were added in front of the 5′ terminal ATG of the nucleotide sequence represented by SEQ ID NO:1 for frame adjustment. […] GGATCCCCATG . . . 3′. The obtained plasmid for production of GST-Rap1 fusion protein was transfected into E. coli. The E. coli with the inserted plasmid was cultured, and GST-Rap1 protein was produced within E. coli cells by inducing the protein production with 0.2 mM IPTG (isopropylthiogalactopyranoside) (30° C., 2 hours). The E. coli cells were recovered by centrifugation, solubilized in a lysis buffer (100 mM NaCl, 50 mM Tris-HCl (pH 7.5), 1% Triton X100, 2 mM MgCl2, 0.1 TIU/ml Aprotinin), and disrupted by sonication. The solution was centrifuged, and then glutathione Sepharose 4B beads (product of Amersham) was added to the obtained supernatant and reacted at 4° C. for one hour to prepare GST-Rap1 beads.
A plasmid of p30-Myc tag was introduced into 293T cells in 70% confluency by electroporation. […]
The bands visualized by exposing to the film for chemiluminescence were quantitated with use of image analyzing software (Win Roof, product of Mitani Corp.). […]

`CCS(=O)(=O)Nc1ncc(C(F)(F)F)cc1NC(=O)C1CCCCC1.O.[Na]` [compound 1, N-(2-ethylsulfonylamino-5-trifluoromethyl-3-pyridyl)cyclohexanecarboxamide monosodium salt monohydrate] was tested, and the “p30 band volume (brightness×area) of p30 bound to activated GST-Rap1, compared to group without addition” value was “significantly lower”.
